Literature values in patent US6372423B1, “Method for stabilizing platelets” (Dade Behring Marburg GmbH, priority 1996, dated 2002).
Where a name gives a salt, the structure may show the parent alone.

Details: intravenous administration of 0.8 mg per kg and hour

SMILES: CCN(CCO)CCCC(C)Nc1ccnc2cc(Cl)ccc12 (stereo not shown) [hydroxychloroquine sulfate]
- Toxicological assessment: toxicologically harmless
